Experimental data: patent US6525079B2, “Anti-parasitic heterocycle compounds, agents, formulations, and methods of use thereof” (Pfizer Inc., priority 1998, dated 2003)

Columns and labels:
[1] = system: Boophilus microplus larvae; test: Test for acaricidal activity: treated filter paper envelope, larval mortality; type: in vivo; details: Rhipicephalus microplus, larvae exposed 48 hours at 25° C.; for mortality at 0.5 µg/cm2: dosage 0.5 μg/cm^2 on filter paper
Method: Test for Acaricidal Activity
A dose of 10 μg/cm^2 is created by evenly pipetting 0.5 ml of a 1 mg/ml solution of the test compound in a suitable solvent such as acetone or ethanol onto a Whatman No. 1 (Trade Mark) filter paper cut to a size of 8×6.25 cm. When dry, the paper is folded in half, sealed on two sides using a crimping device and placed in a Kilner jar containing a cotton wool pad dampened with water. The jar is then sealed and placed at 25° C. for 24 hours. Next, approximately 50 Boophilus microplus larvae are introduced into the treated paper envelope which is then crimped along the third side to effect a complete seal. The paper envelope is returned to the Kilner jar, which is sealed and placed at 25° C. for a further 48 hours. The papers are then removed and mortality assessed. Negative controls are provided by treating an appropriately cut filter paper with 0.5 ml of solvent only and following the same procedure. Activity at other doses is obtained by varying the concentration of the test solution. The table below illustrates the in vivo activity of a selection of the compounds of the invention against Boophilus microplus larvae. Dosages are expressed in μg/cm^2.

[2] = system: Adult flies (Stomoxys calcitrans); test: Test for insecticidal activity: topical application to adult flies, mortality after 24 hours; type: in vivo; details: 1 μl acetone solution applied to thorax of fly; mortality assessed 24 hours after dosing
Method: Test for Insecticidal Activity Adult flies (Stomoxys calcitrans) are collected and anaesthetized using CO2- 1 μl of an acetone solution containing the test substance is applied directly to the thorax of the fly. The flies are then placed carefully into a 50 ml tube covered with damp gauze to recover from the CO2. Negative controls have 1 μl of acetone dispensed onto them. Mortality is assessed 24 hours after dosing. The table below illustrates the in vivo activity of a selection of the substances of the invention against such flies. Dosages required to produce 100% mortality are expressed in μg/fly.

SMILES	mortality at 0.5 µg/cm2 [1]	Dosage required to produce 100% mortality [2]	mortality at 1 µg/cm2 ([1]; dosage 1 μg/cm^2 on filter paper)
FC(F)(F)c1cc(Cl)c(-n2cc(C3CC3(Br)Br)nn2)c(Cl)c1 (centres unmarked) [Example 1, 4-(2,2-Dibromocyclopropyl)-1-(2,6-dichloro-4-trifluoromethylphenyl)-1,2,3-triazole]	90%	0.005 μg/fly	–
FC(F)(F)c1cc(Cl)c(-n2cc(C3CC3(Br)Br)c3ccccc32)c(Cl)c1 (centres unmarked) [Example 4, 3-(2,2-Dibromocyclopropyl)-1-(2,6-dichloro-4-trifluoromethylphenyl)indole]	–	0.05 μg/fly	–
FC(F)(F)c1cc(Cl)c(-n2cnc(C3CC3(Br)Br)n2)c(Cl)c1 (centres unmarked) [Example 6, 3-(2,2-Dibromocyclopropyl)-1-(2,6-dichloro-4-trifluoromethylphenyl)-1,2,4-triazole]	–	0.01 μg/fly	–
FC(F)(F)c1cc(Cl)c(-n2cc(C3CC3(Cl)Cl)nn2)c(Cl)c1 (centres unmarked) [Example 2, 4-(2,2-Dichlorocyclopropyl)-1-(2,6-dichloro-4-trifluoromethylphenyl)-1,2,3-triazole]	–	0.01 μg/fly	100%
N#Cc1cn(-c2c(Cl)cc(C(F)(F)F)cc2Cl)cc1C1CC1(Br)Br (centres unmarked) [Example 3, 3-Cyano-4-(2,2-dibromocyclopropyl)-1-(2,6-dichloro-4-trifluoromethylphenyl)pyrrole]	100%	0.005 μg/fly	–
